Literature values as cited in US20240016816A1, “COMBINATION THERAPY” (priority 2017, published 2024).

Assays:
eyelashes = settings: patients using ophthalmic prostaglandins
hair loss = settings: clinical trials

| SMILES | effect on eyelashes (eyelashes) | efficacy, monotherapy comparison minoxidil vs finasteride (hair loss) |
| --- | --- | --- |
| CC(C)OC(=O)CCC/C=C\C[C@@H]1[C@@H](/C=C/[C@@H](O)COc2cccc(C(F)(F)F)c2)[C@H](O)C[C@@H]1O [travoprost] | increase in diameter, density and length of eyelashes | – |
| CC(C)(C)NC(=O)[C@H]1CC[C@H]2[C@@H]3CC[C@H]4NC(=O)C=C[C@]4(C)[C@H]3CC[C@]12C [finasteride] | – | the more efficacious treatment option |
| CC(C)OC(=O)CCC/C=C\C[C@@H]1[C@@H](CC[C@@H](O)CCc2ccccc2)[C@H](O)C[C@@H]1O [latanoprost] | increase in diameter, density and length of eyelashes | – |
| CCNC(=O)CCC/C=C\C[C@@H]1[C@@H](/C=C/[C@@H](O)CCc2ccccc2)[C@H](O)C[C@@H]1O [Bimatoprost, bimatoprost] | significantly increase eyelash length | – |
